Assay results as given in US20140242093A1, “METHODS AND COMPOSITIONS FOR MODULATING THE INNATE IMMUNE RESPONSE AND/OR MYOGENESIS IN A MAMMALIAN SUBJECT” (FRED HUTCHINSON CANCER RESEARCH CENTER, priority 2011, published 2014).

Tested on: control human primary myoblasts
Test: Expression microarray of primary myoblasts transduced with lentivirus carrying DUX4-fl, DUX4-s or GFP
Experimental: Primary human myoblasts were collected and cultured as previously described (Snider et al., 2010). Primary myoblasts were maintained at or below 70% confluency for proliferation. For differentiation, cells were allowed to reach 95-100% confluency in growth medium. Once confluency was reached, the cells were changed to differentiation medium (F10 media supplemented with 1% horse serum, 10 μg/mL insulin, and 10 μg/mL transferrin, penicillin/streptomycin) and maintained for 4 days. Human RD cells were grown in DMEM in 10% bovine calf serum (Hyclone) and penicillin/streptomycin. The primary myoblasts were transduced with lentivirus carrying DUX-fl, DUX4- or GFP (MOI=15).
Expression microarrays were performed on the transduced cells at 24 hours after transduction as follows. […] Samples were analyzed by Illumina Human Whole Genome microarrays. Probe intensities were corrected, normalized, and summarized by the Lumi package of Bioconductor (Du et al., 2008). Differentially expressed genes were identified by the LIMMA package of Bioconductor (Wettenhall and Smyth, 2004). Gene set enrichment analysis (GSEA) was performed using the Bioconductor GOstats package (Falcon and Gentleman, 2007).

[1] = 3-fold criteria (>1.584 log2-fold change and FDR<0.01)

“DUX4-fl: full-length DUX4 protein (SEQ ID NO:110), expressed from lentiviral or pCS2 vectors or in vitro translated” was tested, and the “number of genes with increased expression” value was 1071 genes, the “number of genes with decreased expression” value (2-fold change and FDR<0.01 vs lenti-GFP, 24 hours after transduction) was 837 genes and the “number of genes decreased” value [1] was 244 genes. For the same substance, the “number of genes increased” value [1] was 466 genes, the “BQ437417 (no symbol given) expression fc” value (Refseq BQ437417, cultured human skeletal muscle) was −2.514 and the “fc of ACVRL1 (expression array)” value (Refseq NM_000020.1) was −1.01. The “fc of C3 (expression array)” value (Refseq NM_000064.1) was −1, the CA2 expression fc (Refseq NM_000067.1) was 6.091 and the “fc of COL1A1 (expression array)” value (Refseq NM_000088.3) was −0.2992. The CST3 fc (Refseq NM_000099.2) was −1.131, the ENG fc (Refseq NM_000118.1) was −1.105 and the “fc of GAMT (expression array)” value (Refseq NM_000156.4) was −1.021. For the same substance, the GBE1 fc (Refseq NM_000158.2) was −1.129, the “fc of IDS (expression array)” value (Refseq NM_000202.3) was −1.025 and the KCNA1 expression fc (Refseq NM_000217.2) was 1.832. The SGCG expression fc (Refseq NM_000231.1) was 1.863, the NP expression fc (Refseq NM_000270.1) was 6.961 and the “fc of PTEN (expression array)” value (Refseq NM_000314.4) was −1.031. For the same substance, the SLC3A1 expression fc (Refseq NM_000341.2) was 2.736, the SOX9 expression fc (Refseq NM_000346.2) was 3.099 and the “fc of PAFAH1B1 (expression array)” value (Refseq NM_000430.2) was −0.3583. The HBA2 expression fc (Refseq NM_000517.3) was 4.721, the “fc of HBB (expression array)” value (Refseq NM_000518.4) was −0.354 and the HBA1 expression fc (Refseq NM_000558.3) was 4.787. For the same substance, the IL8 expression fc (Refseq NM_000584.2, cultured human skeletal muscle) was −3.885, the “fc of IL15 (expression array)” value (Refseq NM_000585.2) was −1.013 and the TAP1 expression fc (Refseq NM_000593.5, cultured human skeletal muscle) was −3.265. For the same substance, the “fc of IL6 (expression array)” value (Refseq NM_000600.1) was −0.8024, the IL10RB fc (Refseq NM_000628.3) was −1.108 and the “fc of ALDH2 (expression array)” value (Refseq NM_000690.2) was −1.011. For the same substance, the “fc of ANXA1 (expression array)” value (Refseq NM_000700.1) was −1.001, the “fc of CYP2J2 (expression array)” value (Refseq NM_000775.2) was −0.06948 and the “fc of GAS6 (expression array)” value (Refseq NM_000820.1) was −1.026. The “fc of MME (expression array)” value (Refseq NM_000902.3) was −1.046, the P4HB fc (Refseq NM_000918.3) was −1.109 and the PTGFR fc (Refseq NM_000959.3) was −1.089. It also gave a TOP2A fc (Refseq NM_001067.2) of −1.157, a TYMS fc (Refseq NM_001071.1) of −1.125 and a VCAM1 expression fc (Refseq NM_001078.2, cultured human skeletal muscle) of −3.014. It also gave an ALOX15B fc (Refseq NM_001141.2) of −1.071, an ANPEP expression fc (Refseq NM_001150.1, cultured human skeletal muscle) of −2.118 and an ART3 expression fc (Refseq NM_001179.3) of 4.363. The CA12 expression fc (Refseq NM_001218.3, cultured human skeletal muscle) was −2.629, the “fc of CASP4 (expression array)” value (Refseq NM_001225.3) was −1.059 and the CD68 fc (Refseq NM_001251.1) was −1.091. For the same substance, the CLIC1 fc (Refseq NM_001288.4) was −1.083, the CXADR expression fc (Refseq NM_001338.3) was 2.494 and the DPYSL2 fc (Refseq NM_001386.4) was −1.1. For the same substance, the EMP3 fc (Refseq NM_001425.1) was −1.139, the FLT3LG fc (Refseq NM_001459.2) was −1.065 and the CXCL1 expression fc (Refseq NM_001511.1, cultured human skeletal muscle) was −3.523. For the same substance, the “fc of HAS1 (expression array)” value (Refseq NM_001523.1) was −1.063, the PRMT2 fc (Refseq NM_001535.2) was −1.119 and the NDST1 fc (Refseq NM_001543.3) was −1.069. For the same substance, the IFIT2 expression fc (Refseq NM_001547.4, cultured human skeletal muscle) was −4.315, the IFIT1 expression fc (Refseq NM_001548.3, cultured human skeletal muscle) was −4.379 and the IFIT3 expression fc (Refseq NM_001549.2, cultured human skeletal muscle) was −3.857. For the same substance, the IFRD1 expression fc (Refseq NM_001550.2) was 2.99, the IGFBP4 expression fc (Refseq NM_001552.2, cultured human skeletal muscle) was −1.937 and the “fc of CXCL10 (expression array)” value (Refseq NM_001565.2) was −0.8766. The AARS fc (Refseq NM_001605.2) was −1.067, the ACP2 fc (Refseq NM_001610.1) was −1.126 and the TRIM23 expression fc (Refseq NM_001656.3) was 2.235. The ARSD fc (Refseq NM_001669.2) was −1.079, the “fc of AUH (expression array)” value (Refseq NM_001698.1) was −1.06 and the CFB expression fc (Refseq NM_001710.4, cultured human skeletal muscle) was −5.623. The C1R expression fc (Refseq NM_001733.4, cultured human skeletal muscle) was −2.829, the CAV1 fc (Refseq NM_001753.3) was −1.097 and the “fc of RUNX1 (expression array)” value (Refseq NM_001754.3) was −0.2108. For the same substance, the “fc of CCND2 (expression array)” value (Refseq NM_001759.2) was −1.057, the CD9 expression fc (Refseq NM_001769.2) was 1.992 and the CDH11 fc (Refseq NM_001797.2) was −1.174. It also gave an HBEGF expression fc (Refseq NM_001945.1) of 3.868, an ECGF1 expression fc (Refseq NM_001953.2, cultured human skeletal muscle) of −4.299 and an EGR1 expression fc (Refseq NM_001964.2) of 3.749. The ETV6 fc (Refseq NM_001987.4) was −1.1, the EYA3 expression fc (Refseq NM_001990.2) was 2.572 and the “fc of ACSL1 (expression array)” value (Refseq NM_001995.2) was −1.015. It also gave an FES fc (Refseq NM_002005.2) of −1.108 and an FTH1 expression fc (Refseq NM_002032.2, cultured human skeletal muscle) of −2.029.
